In the supplement of paper PMC10307832:

Tests used:
Assay in all cases: relative viability (nuclei count vs DMSO), 5 days (fraction); higher = more cells survive
NCI-H1975 = test system: NCI-H1975
Summary of the method: (§1)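 Dosing by pin tool came one day after lung cancer cell lines were seeded in 1536-well plates, using either one drug or a fixed anchor-drug dose plus five library-drug doses (not always all listed) in √10 steps. After 5 days, nuclei were counted on 4× images. Relative viability is treated-well nuclei count divided by vehicle-well nuclei count, and values are medians of duplicate plates.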

NCI-H2126 = test system: NCI-H2126
Summary of the method: as §1

NCI-H2228 = test system: NCI-H2228
Summary of the method: as §1

NCI-H2347 = test system: NCI-H2347
Summary of the method: as §1

NCI-H358 = test system: NCI-H358
Summary of the method: as §1

NCI-H647 = test system: NCI-H647
Summary of the method: as §1

PC-3 [JPC-3] = test system: PC-3 [JPC-3]
Summary of the method: as §1

RERF-LC-KJ = test system: RERF-LC-KJ
Summary of the method: as §1

SK-LU-1 = test system: SK-LU-1
Summary of the method: as §1

SW 1573 = test system: SW 1573
Summary of the method: as §1

CCN(CC)CCCCNc1ncc2cc(-c3cc(OC)cc(OC)c3)c(NC(=O)NC(C)(C)C)nc2n1 + CS(=O)(=O)N1CCN(Cc2cc3nc(-c4cccc5[nH]ncc45)nc(N4CCOCC4)c3s2)CC1 [Pictilisib] (partner 1 µM)
relative viability (NCI-H1975; first compound 0.01 µM): 0.28
relative viability (NCI-H1975; first compound 0.03162 µM): 0.277
relative viability (NCI-H1975; first compound 0.1 µM): 0.311
relative viability (NCI-H1975; first compound 0.3162 µM): 0.322
relative viability (NCI-H1975; first compound 1 µM): 0.255
relative viability (NCI-H2126; first compound 0.01 µM): 0.498
relative viability (NCI-H2126; first compound 0.03162 µM): 0.489
relative viability (NCI-H2126; first compound 0.1 µM): 0.508
relative viability (NCI-H2126; first compound 0.3162 µM): 0.523
relative viability (NCI-H2126; first compound 1 µM): 0.477
relative viability (NCI-H2228; first compound 0.01 µM): 0.441
relative viability (NCI-H2228; first compound 0.03162 µM): 0.311
relative viability (NCI-H2228; first compound 0.1 µM): 0.353
relative viability (NCI-H2228; first compound 0.3162 µM): 0.539
relative viability (NCI-H2228; first compound 1 µM): 0.246
relative viability (NCI-H2347; first compound 0.01 µM): 0.772
relative viability (NCI-H2347; first compound 0.03162 µM): 0.656
relative viability (NCI-H2347; first compound 0.1 µM): 0.611
relative viability (NCI-H2347; first compound 0.3162 µM): 0.89
relative viability (NCI-H2347; first compound 1 µM): 0.655
relative viability (NCI-H358; first compound 0.01 µM): 0.353
relative viability (NCI-H358; first compound 0.03162 µM): 0.282
relative viability (NCI-H358; first compound 0.1 µM): 0.38
relative viability (NCI-H358; first compound 0.3162 µM): 0.35
relative viability (NCI-H358; first compound 1 µM): 0.3
relative viability (NCI-H647; first compound 0.03162 µM): 0.471
relative viability (NCI-H647; first compound 0.1 µM): 0.486
relative viability (NCI-H647; first compound 0.3162 µM): 0.465
relative viability (NCI-H647; first compound 1 µM): 0.348
relative viability (PC-3 [JPC-3]; first compound 0.01 µM): 0.739
relative viability (PC-3 [JPC-3]; first compound 0.03162 µM): 0.843
relative viability (PC-3 [JPC-3]; first compound 0.1 µM): 0.786
relative viability (PC-3 [JPC-3]; first compound 0.3162 µM): 0.815
relative viability (PC-3 [JPC-3]; first compound 1 µM): 0.602
relative viability (RERF-LC-KJ; first compound 0.01 µM): 0.695
relative viability (RERF-LC-KJ; first compound 0.03162 µM): 0.639
relative viability (RERF-LC-KJ; first compound 0.1 µM): 0.528
relative viability (RERF-LC-KJ; first compound 0.3162 µM): 0.671
relative viability (RERF-LC-KJ; first compound 1 µM): 0.526
relative viability (SK-LU-1; first compound 0.01 µM): 0.483
relative viability (SK-LU-1; first compound 0.03162 µM): 0.427
relative viability (SK-LU-1; first compound 0.1 µM): 0.526
relative viability (SK-LU-1; first compound 0.3162 µM): 0.527
relative viability (SK-LU-1; first compound 1 µM): 0.393
relative viability (SW 1573; first compound 0.01 µM): 0.528
relative viability (SW 1573; first compound 0.03162 µM): 0.48
relative viability (SW 1573; first compound 0.1 µM): 0.615
relative viability (SW 1573; first compound 0.3162 µM): 0.66
relative viability (SW 1573; first compound 1 µM): 0.507
